According to patent publication US9873690B2, “3-indol substituted derivatives, pharmaceutical compositions and methods for use” (Pfizer Inc., priority 2015, dated 2018):

Target: T1, hTDO2 (Homo sapiens, UniProt P48775)
T1 construct: endogenous in cells; host or cells: A172 human brain glioblastoma cells (ATCC CRL-1620)
Assay: Cellular assay for TDO2 activity determination in A172 cells
Assay type: cell-based
Details: human glioblastoma A172 cells naturally expressing hTDO2; overnight incubation; kynurenine by absorbance at 480 nm
Summary of the method: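 A172 glioblastoma cells endogenously expressing hTDO2, 1.25×10^4 cells/well, incubated overnight at 37 °C, 5% CO2 in IMDM with 2% FBS and ten compound concentrations. Supernatant kynurenine measured after TCA treatment and Ehrlich's reagent (4-dimethylaminobenzaldehyde) by absorbance at 480 nm against a kynurenine standard curve, then curve-fitted.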

T1 sequence (P48775 whole entry): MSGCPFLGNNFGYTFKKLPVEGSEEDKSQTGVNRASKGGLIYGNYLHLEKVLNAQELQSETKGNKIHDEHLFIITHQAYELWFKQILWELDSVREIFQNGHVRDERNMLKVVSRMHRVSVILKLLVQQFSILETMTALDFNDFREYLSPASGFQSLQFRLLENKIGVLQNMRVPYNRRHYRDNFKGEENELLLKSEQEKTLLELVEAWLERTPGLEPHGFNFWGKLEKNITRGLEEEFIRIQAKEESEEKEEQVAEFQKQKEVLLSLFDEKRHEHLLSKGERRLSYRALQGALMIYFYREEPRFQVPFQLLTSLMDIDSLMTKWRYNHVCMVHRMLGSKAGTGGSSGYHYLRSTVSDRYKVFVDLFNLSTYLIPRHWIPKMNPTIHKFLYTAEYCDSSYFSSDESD

Row | Compound | IC50
1 | CNS(=O)(=O)CCN1C(C)c2cc(-c3c[nH]c4cc(F)ccc34)ccc2S1(=O)=O (single isomer, unassigned; (-)) [Example 59, (−)-2-(5-(6-fluoro-1H-indol-3-yl)-3-methyl-1,1-dioxidobenzo[d]isothiazol-2(3H)-yl)-N-methylethane-1-sulfonamide] | 425 nM
2 | CCCC1NS(=O)(=O)c2ccc(-c3c[nH]c4cc(F)ccc34)cc21 (single isomer, unassigned; (+)) [Example 6, (+)-5-(6-fluoro-1H-indol-3-yl)-3-propyl-2,3-dihydrobenzo[d]isothiazole 1,1-dioxide] | 367 nM
3 | CC1c2cc(-c3c[nH]c4cc(F)ccc34)ccc2S(=O)(=O)N1C1CCNC(=O)C1 (single isomer, unassigned; (+)) [Example 121, (+)-4-(-5-(6-fluoro-1H-indol-3-yl)-3-methyl-1,1-dioxidobenzo[d]isothiazol-2(3H)-yl)piperidin-2-one] | 348 nM
4 | CC1c2cc(-c3c[nH]c4cc(F)ccc34)ccc2S(=O)(=O)N1CC[S+](C)[O-] (single isomer, unassigned; (-)) [Example 56, (−)-5-(6-fluoro-1H-indol-3-yl)-3-methyl-2-(2-(methylsulfinyl)ethyl)-2,3-dihydrobenzo[d]isothiazole 1,1-dioxide] | 306 nM
5 | CNC(=O)C(N)CN1C(C)c2cc(-c3c[nH]c4cc(F)ccc34)ccc2S1(=O)=O (single isomer, unassigned) [Example 101] | 366 nM
6 | O=S1(=O)c2ccc(-c3c[nH]c4cc(F)ccc34)cc2CN1[C@@H]1CCOC1 [Example 38, (R)-5-(6-fluoro-1H-indol-3-yl)-2-(tetrahydrofuran-3-yl)-2,3-dihydrobenzo[d]isothiazole 1,1-dioxide] | 380 nM
7 | CC(=O)N(C)CC1NS(=O)(=O)c2ccc(-c3c[nH]c4cc(F)ccc34)cc21 (single isomer, unassigned; (-)) [Example 28, (−)-N-((5-(6-fluoro-1H-indol-3-yl)-1,1-dioxido-2,3-dihydrobenzo[d]isothiazol-3-yl)methyl)-N-methylacetamide] | 505 nM
8 | CC1c2cc(-c3c[nH]c4cc(F)ccc34)ccc2S(=O)(=O)N1Cc1ccccn1 (stereo not drawn) [Example 149, 5-(6-fluoro-1H-indol-3-yl)-3-methyl-2-(pyridin-2-ylmethyl)-2,3-dihydrobenzo[d]isothiazole 1,1-dioxide] | 397 nM
9 | CC1c2cc(-c3c[nH]c4cc(F)ccc34)ccc2S(=O)(=O)N1C1CCNC(=O)C1 (single isomer, unassigned; (-)) [Example 119, (−)-4-(-5-(6-fluoro-1H-indol-3-yl)-3-methyl-1,1-dioxidobenzo[d]isothiazol-2(3H)-yl)piperidin-2-one] | 390 nM
10 | NC(=O)C1NS(=O)(=O)c2ccc(-c3c[nH]c4cc(F)ccc34)cc21 (single isomer, unassigned; (-)) [Example 15, (−)-5-(6-fluoro-1H-indol-3-yl)-2,3-dihydrobenzo[d]-Isothiazole-3-carboxamide 1,1-dioxide] | 2070 nM
11 | CC(=O)NCC1NS(=O)(=O)c2ccc(-c3c[nH]c4cc(F)ccc34)cc21 (single isomer, unassigned; (+)) [Example 24, (+)-N-((5-(6-fluoro-1H-indol-3-yl)-1,1-dioxido-2,3-dihydrobenzo[d]isothiazol-3-yl)methyl)acetamide] | 255 nM
12 | NCC1NS(=O)(=O)c2ccc(-c3c[nH]c4cc(F)ccc34)cc21 (single isomer, unassigned; (+)) [Example 19, (+)-3-(aminomethyl)-5-(6-fluoro-1H-indol-3-yl)-2,3-dihydrobenzo[d]isothiazole 1,1-dioxide] | 311 nM
13 | CC1c2cc(-c3c[nH]c4cc(F)ccc34)ccc2S(=O)(=O)N1C[C@]1(C)CCC(=O)N1 (single isomer, unassigned; (+)) [Example 81] | 473 nM
14 | CC1c2cc(-c3c[nH]c4cc(F)ccc34)ccc2S(=O)(=O)N1CCS(N)(=O)=O (single isomer, unassigned; (+)) [Example 61, (+)-2-(5-(6-fluoro-1H-indol-3-yl)-3-methyl-1,1-dioxidobenzo[d]isothiazol-2(3H)-yl)ethane-1-sulfonamide] | 309 nM
15 | CS(=O)(=O)NCC1NS(=O)(=O)c2ccc(-c3c[nH]c4cc(F)ccc34)cc21 (single isomer, unassigned; (-)) [Example 139, (−)-N-((5-(6-fluoro-1H-indol-3-yl)-1,1-dioxido-2,3-dihydrobenzo[d]isothiazol-3-yl)methyl)methanesulfonamide] | 520 nM
16 | CN(C)CC1NS(=O)(=O)c2ccc(-c3c[nH]c4cc(F)ccc34)cc21 (single isomer, unassigned; (-)) [Example 25, (−)-3-((dimethylamino)methyl)-5-(6-fluoro-1H-indol-3-yl)-2,3-dihydrobenzo[d]isothiazole 1,1-dioxide] | 4980 nM
17 | CCC1NS(=O)(=O)c2ccc(-c3c[nH]c4cc(F)ccc34)cc21 (single isomer, unassigned; (-)) [Example 4, (−)-3-ethyl-5-(6-fluoro-1H-indol-3-yl)-2,3-dihydrobenzo[d]isothiazole 1,1-dioxide] | 272 nM
18 | CC1c2cc(-c3c[nH]c4cc(F)ccc34)ccc2S(=O)(=O)N1CCc1n[nH]c(=O)o1 (single isomer, unassigned; (-)) [Example 133, (−)-5-(2-(5-(6-fluoro-1H-indol-3-yl)-3-methyl-1,1-dioxidobenzo[d]isothiazol-2(3H)-yl)ethyl)-1,3,4-oxadiazol-2(3H)-one] | 383 nM
19 | CC1=NS(=O)(=O)c2ccc(-c3c[nH]c4cc(F)ccc34)cc21 [Example 135, 5-(6-fluoro-1H-indol-3-yl)-3-methylbenzo[d]isothiazole 1,1-dioxide] | 183 nM
20 | CC1c2cc(-c3c[nH]c4cc(F)ccc34)ccc2S(=O)(=O)N1CC1(C)COC(=O)N1 (single isomer, unassigned) [Example 87] | 313 nM
21 | O=S1(=O)c2ccc(-c3c[nH]c4cc(F)ccc34)cc2C(CO)N1CC(O)CO (single isomer, unassigned; (+)) [Example 141, (+)-2-(2,3-dihydroxypropyl)-5-(6-fluoro-1H-indol-3-yl)-3-(hydroxymethyl)-2,3-dihydrobenzo[d]isothiazole 1,1-dioxide] | 830 nM
22 | CC1c2cc(-c3c[nH]c4cc(F)ccc34)ccc2S(=O)(=O)N1CCC(=O)N1CCNCC1 (single isomer, unassigned; (-)) [Example 50, (−)3-(5-(6-fluoro-1H-indol-3-yl)-3-methyl-1,1-dioxidobenzo[d]isothiazol-2(3H)-yl)-1-(piperazin-1-yl)propan-1-one] | 336 nM

These reach a lower IC50. Values come first.

Row | IC50 | Compound
23 | 43 nM | O=S1(=O)NC(CO)c2cc(-c3c[nH]c4cc(F)ccc34)ccc21 (single isomer, unassigned; (+)) [Example 13, (+)-5-(6-fluoro-1H-indol-3-yl)-3-(hydroxymethyl)-2,3-dihydrobenzo[d]isothiazole 1,1-dioxide]
24 | 136 nM | CNC(=O)CCN1Cc2cc(-c3c[nH]c4cc(F)ccc34)ccc2S1(=O)=O [Example 43, 3-(5-(6-fluoro-1H-indol-3-yl)-1,1-dioxidobenzo[d]isothiazol-2(3H)-yl)-N-methylpropanamide]
25 | 112 nM | Cn1cnc(CN2C(CO)c3cc(-c4c[nH]c5cc(F)ccc45)ccc3S2(=O)=O)n1 (single isomer, unassigned; (+)) [Example 130, (+)-5-(6-fluoro-1H-indol-3-yl)-3-(hydroxymethyl)-2-((1-methyl-1H-1,2,4-triazol-3-yl)methyl)-2,3-dihydrobenzo[d]isothiazole 1,1-dioxide]
26 | 88 nM | CC1c2cc(-c3c[nH]c4cc(F)ccc34)ccc2S(=O)(=O)N1CC(N)=O (single isomer, unassigned; (+)) [Example 115]
27 | 34 nM | O=S1(=O)NC(CCO)c2cc(-c3c[nH]c4cc(F)ccc34)ccc21 (single isomer, unassigned; (+)) [Example 30, (+)-5-(6-fluoro-1H-indol-3-yl)-3-(2-hydroxyethyl)-2,3-dihydrobenzo[d]isothiazole 1,1-dioxide]
28 | 54 nM | CC1c2cc(-c3c[nH]c4cc(F)ccc34)ccc2S(=O)(=O)N1C1CCNC(=O)C1 (single isomer, unassigned; (-)) [Example 122, (−)-4-(-5-(6-fluoro-1H-indol-3-yl)-3-methyl-1,1-dioxidobenzo[d]isothiazol-2(3H)-yl)piperidin-2-one]
29 | 45 nM | CNC(=O)CN1C(C)c2cc(-c3c[nH]c4cc(F)ccc34)ccc2S1(=O)=O (single isomer, unassigned; (-)) [Example 111, (−)-2-(5-(6-fluoro-1H-indol-3-yl)-3-methyl-1,1-dioxidobenzo[d]isothiazol-2(3H)-yl)-N-methylacetamide]
30 | 68 nM | CC1c2cc(-c3c[nH]c4cc(F)ccc34)ccc2S(=O)(=O)N1CC1(C)COC(=O)N1 (single isomer, unassigned; (-)) [Example 88, (−)-4-((5-(6-fluoro-1H-indol-3-yl)-3-methyl-1,1-dioxidobenzo[d]isothiazol-2(3H)-yl)methyl)-4-methyloxazolidin-2-one]
31 | 30 nM | CC1c2cc(-c3c[nH]c4cc(F)ccc34)ccc2S(=O)(=O)N1C[C@H](O)CO (single isomer, unassigned; (+)) [Example 96]
32 | 27 nM | C[C@H]1NS(=O)(=O)c2ccc(-c3c[nH]c4cc(F)ccc34)cc21 (single isomer, unassigned) [Example 1, (+)-5-(6-fluoro-1H-indol-3-yl)-3-methyl-2,3-dihydro-1,2-benzothiazole 1,1-dioxide]
33 | 64 nM | CCC1NS(=O)(=O)c2ccc(-c3c[nH]c4cc(F)ccc34)cc21 (single isomer, unassigned; (+)) [Example 3, (+)-3-ethyl-5-(6-fluoro-1H-indol-3-yl)-2,3-dihydrobenzo[d]-isothiazole 1,1-dioxide]
